Measured values reported in US4861778A, “2,3-dihydrophthalazine-1,4-diones” (priority 1986, dated 1989).
Like-named read-outs stand apart in the source and are kept apart here.

Assays:
[1] = tested on: serum cholesterol and serum triglyceride; experiment: Hypolipidemic effect of Compound No. 1 in normal Sprague-Dawley male rats (Example 12, Table III); assay type: in vivo; conditions: 10 mg/kg/day orally
Method: In addition, rats were treated with Compound No. 1. The rats used in the test were normal Sprague-Dawley male rats, each weighting approximately 350 grams. The rats, tested in groups of six, were orally administered 10 mg/kg/d of Compound 1 in an aqueous solution of 1 percent CMC. The treatment of 10 milligrams per kilogram of body weight per day continued for 14 days. On Days 7 and 14 blood was obtained from each of the rats by tail vein bleeding. The blood obtained was separated centrifugation for three minutes. Serum cholesterol and serum triglyceride blood levels were determined in accordance with the procedure of Example 1.
(§1) In Table III the results are reported as percent of serum cholesterol and serum triglyceride based on the concentration of these materials found in the control, the rats treated with the 1 percent aqueous solution of CMC.

[2] = tested on: plasma lipoprotein fractions; experiment: Determination of plasma lipoprotein fractions in rats (Example 13, Table IV); assay type: in vivo, Sprague-Dawley male rats; conditions: 10 mg/kg/d orally
Description: Determination of Plasma Lipoprotein Fractions in Rats
Sets of six normal Sprague-Dawley male rats, each weighing approximately 350 grams, were orally treated with 10 milligrams per kilogram of body weight per day of 2,3-dihydrophthalazine-1,4-dione (Comp. No. 1) by intubation needle. In addition, a set of six Sprague-Dawley male rats of approximately the same weight were similarly treated except that the administered drug was the inert carrier, the 1 percent aqueous solution of CMC.
Blood was collected from all the rats participating in the test from the abdominal vein and lipoprotein fractions were obtained by the method of Hatch and Lees (Adv. Lipid Res., Vol. 6, 1 [1968]) and Havel et al. (J. Clin. Invest., Vol. 34, 1345 [1955]). Each of the fractions were analyzed for cholesterol in accordance with the Ness et al. test, for triglyceride level (Bio-Dynamic/bmc Triglyceride Kit), neutral lipids, in accordance with the test of Bragdon (J. Biol. Chem., Vol. 190, 513 [1951]), phospholipids, in accordance with the Stewart and Hendry procedure (Biochem. J., Vol. 29, 1683 [1935]) and protein levels, in accordance with the procedure of Lowry et al. (J. Biol. Chem., Vol. 193, 265 [1951]).

[3] = tested on: serum cholesterol and serum triglycerides; experiment: Effect of Compound 1 on hyperlipidemic mice (Example 14); assay type: in vivo, CF1 male mice; conditions: diet-induced hyperlipidemic CF1 mice, 20 mg/kg daily, 12 days
Method: Effect of Compound 1 on Hyperlipidemic Mice
A group of CF1 male mice were fed a diet resulting in induced hyperlipidemia.
These hyperlipidemic mice were treated for 12 days with Compound 1 (2,3-dihydrophthalazine-1,4-dione) at a daily dosage of 20 mg/kg. At the conclusion of this treatment regime the average serum cholesterol level of the hyperlipidemic mice was lowered to 221 mg percent, a 41 percent reduction.

[4] = tested on: serum cholesterol and serum triglyceride; experiment: Hypolipidemic effect of Compound No. 1 in normal CF1 male mice, dose response (Example 12, Table III); assay type: in vivo
Method: The hypolipidemic effects of a preferred compound within the scope of the present invention, 2,3-dihydrophthalazine-1,4-dione (Compound No. 1), was tested in accordance with the procedure set forth in Example 11. However, in addition to testing normal CF1 male mice at 20 mg/kg/d ip, sets of six of these mice were treated with dosages of 10, 40 and 60 mg/kg/d. A set of six mice were again treated with a 1 percent aqueous solution of CMC, the carrier for the active agent, as a control.
as §1

[5] = tested on: serum cholesterol and serum triglyceride; experiment: Hypolipidemic activity of 2,3-dihydrophthalazine-1,4-diones in normal male mice (Example 11, Table II); assay type: in vivo, CF1 male mice; conditions: Mus musculus, ip, CF1 male mice, 20 mg/kg/day intraperitoneally
Method: Hypolipidemic Activity of 2,3-Dihydrophthalazine-1,4-Diones in Normal Male Mice
Each of the prepared compounds was administered intraperitoneally, in a dosage of 20 milligrams per kilogram of body weight per day, to a group of six CF1 male mice, each weighing approximately 25 grams, for 16 days. On Days 9 and 16 blood was obtained from each of the tested mice by tail vein bleeding. The blood serum so obtained was separated by centrifugation for three minutes. […] Serum triglyceride levels were obtained on Day 16 by use of the Bio-Dynamics/bm Triglyceride Kit.
In addition to the above-described treated mice, an untreated control group of six mice were similarly tested on Days 9 and 16 to determine their serum cholesterol and serum triglyceride blood levels.

SMILES: O=c1[nH][nH]c(=O)c2ccccc12 [Compound 1, 2,3-Dihydrophthalazine-1,4-Dione]
- Cholesterol Day 7, % control ± standard deviation ([1]; Day 7): 75 ± 5 % CONTROL
- Triglyceride Day 7, % control ± standard deviation ([1]; Day 7): 66 ± 6 % CONTROL
- Cholesterol Day 14, % control ± standard deviation ([1]; Day 14): 68 ± 8 % CONTROL
- Triglyceride Day 14, % control ± standard deviation ([1]; Day 14): 64 ± 5 % CONTROL
- HDL cholesterol, percent control ± standard deviation ([2]; HDL, column 1): 107 ± 3 PERCENT CONTROL
- HDL triglyceride, percent control ± standard deviation ([2]; HDL, column 2): 42 ± 4 PERCENT CONTROL
- HDL neutral lipids, percent control ± standard deviation ([2]; HDL, column 3): 86 ± 3 PERCENT CONTROL
- HDL phospholipids, percent control ± standard deviation ([2]; HDL, column 4): 42 ± 6 PERCENT CONTROL
- HDL protein, percent control ± standard deviation ([2]; HDL, column 5): 93 ± 7 PERCENT CONTROL
- LDL cholesterol, percent control ± standard deviation ([2]; LDL, column 1): 35 ± 6 PERCENT CONTROL
- LDL triglyceride, percent control ± standard deviation ([2]; LDL, column 2): 94 ± 7 PERCENT CONTROL
- LDL neutral lipids, percent control ± standard deviation ([2]; LDL, column 3): 88 ± 6 PERCENT CONTROL
- LDL phospholipids, percent control ± standard deviation ([2]; LDL, column 4): 125 ± 7 PERCENT CONTROL
- LDL protein, percent control ± standard deviation ([2]; LDL, column 5): 92 ± 8 PERCENT CONTROL
- VLDL cholesterol, percent control ± standard deviation ([2]; VLDL, column 1): 30 ± 5 PERCENT CONTROL
- VLDL triglyceride, percent control ± standard deviation ([2]; VLDL, column 2): 134 ± 10 PERCENT CONTROL
- VLDL neutral lipids, percent control ± standard deviation ([2]; VLDL, column 3): 81 ± 3 PERCENT CONTROL
- VLDL phospholipids, percent control ± standard deviation ([2]; VLDL, column 4): 91 ± 6 PERCENT CONTROL
- VLDL protein, percent control ± standard deviation ([2]; VLDL, column 5): 103 ± 7 PERCENT CONTROL
- Chylomicrons cholesterol, percent control ± standard deviation ([2]; chylomicrons, column 1): 82 ± 6 PERCENT CONTROL
- Chylomicrons triglyceride, percent control ± standard deviation ([2]; chylomicrons, column 2): 85 ± 7 PERCENT CONTROL
- Chylomicrons neutral lipids, percent control ± standard deviation ([2]; chylomicrons, column 3): 84 ± 8 PERCENT CONTROL
- Chylomicrons phospholipids, percent control ± standard deviation ([2]; chylomicrons, column 4): 92 ± 7 PERCENT CONTROL
- Chylomicrons protein, percent control ± standard deviation ([2]; chylomicrons, column 5): 102 ± 6 PERCENT CONTROL
- reduction of serum cholesterol level [3]: 41%
- reduction of serum triglycerides level [3]: 56%
- average serum triglycerides level after treatment ([3]; initial 367 mg/dl): 161 mg/dL
- average serum cholesterol level after treatment ([3]; initial 375 mg percent): 221 mg percent
- Cholesterol Day 9, % control ± standard deviation ([4]; 10 mg/kg/day ip): 88 ± 5 % CONTROL
- Cholesterol Day 16, % control ± standard deviation ([4]; 10 mg/kg/day ip): 76 ± 7 % CONTROL
- Triglyceride Day 16, % control ± standard deviation ([4]; 10 mg/kg/day ip): 67 ± 5 % CONTROL
- Cholesterol Day 9, % control ± standard deviation ([4]; 20 mg/kg/day ip): 53 ± 4 % CONTROL
- Cholesterol Day 16, % control ± standard deviation ([4]; 20 mg/kg/day ip): 49 ± 8 % CONTROL
- Triglyceride Day 16, % control ± standard deviation ([4]; 20 mg/kg/day ip): 57 ± 4 % CONTROL
- Cholesterol Day 9, % control ± standard deviation ([4]; 40 mg/kg/day ip): 71 ± 7 % CONTROL
- Cholesterol Day 16, % control ± standard deviation ([4]; 40 mg/kg/day ip): 60 ± 6 % CONTROL
- Triglyceride Day 16, % control ± standard deviation ([4]; 40 mg/kg/day ip): 44 ± 3 % CONTROL
- Cholesterol Day 9, % control ± standard deviation ([4]; 60 mg/kg/day ip): 76 ± 8 % CONTROL
- Cholesterol Day 16, % control ± standard deviation ([4]; 60 mg/kg/day ip): 55 ± 5 % CONTROL
- Triglyceride Day 16, % control ± standard deviation ([4]; 60 mg/kg/day ip): 49 ± 5 % CONTROL
- response vs control in vivo at 20 mg/kg/day ([5]; 216 h, Day 9, read-out: Serum Cholesterol Day 9, percent control ± standard deviation): 53 ± 4%
- response vs control in vivo at 20 mg/kg/day ([5]; 384 h, Day 16, read-out: Serum Cholesterol Day 16, percent control ± standard deviation): 49 ± 5%
- response vs control in vivo at 20 mg/kg/day ([5]; 384 h, Day 16, read-out: Serum Triglyceride Day 16, percent control ± standard deviation): 57 ± 4%
